# In patent US10106577B2, “Agonists of neurotrophin receptors and their use as medicaments” (BIONURE FARMA, S.L., priority 2010, dated 2018):
# “Also recorded” adds a separate entry of the source.
# Legend:
# PC12 cells [1] = assay: Dose response differentiation assay in PC12 cell line; assay type: cell-based; conditions: for number of differentiated cells in a field of 100 cells: after 3 days of treatment; for number of differentiated cells above the best working concentration: G79 at 50 μg/ml, G81 at concentrations higher than 100 ng/ml; for differentiation of PC12 cells (in words): compared to control PC12 untreated cells; for best working concentration for PC12 differentiation: tested 2-20-100 ng/ml and 2-20-50 μg/ml
# Experimental: Stock of PC12 cultures were maintained in Ham's F12 medium supplemented with 2.5% fetal bovine serum (FBS), 15% of horse serum (HS) and 1% penicillin/streptomycin. The cell culture was maintained in 5% CO2 at 37° C.
# PC12 cell differentiation was assessed by treating the cells with all the test compounds (G79, G80, and G81) at different testing concentration (2-20-100 ng/ml and 2-20-50 μg/ml). The cells were first plated into collagen-coated 24-wells plates with 2.5% FBS in the medium to be de-differentiated. After 72 hrs, the test compounds were added and NGF (Sigma Aldrich; 100 ng/ml) as positive control of differentiation. The number of differentiated cells, with neurite processes greater than two cell bodies in length, is counted after 3 days of treatment. The cell count is done in three randomly selected fields with 100 cells.
# PC12 cells [2] = assay: Signalling inhibition assays (PC12 differentiation with LY294002 or PD98059); assay type: cell-based
# Experimental: To evaluate if the transduction pathway induced by G79, G80, and G81 involves AKT and ERK activation, PC12 cell were treated with the test compounds in the presence of LY294002, an inhibitor of PI3K (an upstream activator of AKT) and PD98059, an inhibitor of MAPK kinase (an upstream activator of ERK). For this purpose, PC12 cells were plated into collagen-coated 24-wells plates with 2.5% FBS and after 72 hrs the cells were treated with the small molecules in combination with LY294002 (Sigma Aldrich, 10 μM) or PD98059 (Sigma Aldrich, 50 μM). NGF (100 ng/ml) was used as control and added alone or in combination with the inhibitors.
# TrkA = biological target: T1, TrkA (Rattus norvegicus, UniProt P35739); assay: Western blot analysis of receptor phosphorilation in PC12 cells; assay type: cell-based; conditions: G79 100 ng/ml; 5-15-30-60 min
# T1 construct: PC12 cells expressing both TrkA and p75 receptors were cultivated in normal growth medium; endogenous in cells; host or cells: PC12
# T1 sequence (P35739 33-799): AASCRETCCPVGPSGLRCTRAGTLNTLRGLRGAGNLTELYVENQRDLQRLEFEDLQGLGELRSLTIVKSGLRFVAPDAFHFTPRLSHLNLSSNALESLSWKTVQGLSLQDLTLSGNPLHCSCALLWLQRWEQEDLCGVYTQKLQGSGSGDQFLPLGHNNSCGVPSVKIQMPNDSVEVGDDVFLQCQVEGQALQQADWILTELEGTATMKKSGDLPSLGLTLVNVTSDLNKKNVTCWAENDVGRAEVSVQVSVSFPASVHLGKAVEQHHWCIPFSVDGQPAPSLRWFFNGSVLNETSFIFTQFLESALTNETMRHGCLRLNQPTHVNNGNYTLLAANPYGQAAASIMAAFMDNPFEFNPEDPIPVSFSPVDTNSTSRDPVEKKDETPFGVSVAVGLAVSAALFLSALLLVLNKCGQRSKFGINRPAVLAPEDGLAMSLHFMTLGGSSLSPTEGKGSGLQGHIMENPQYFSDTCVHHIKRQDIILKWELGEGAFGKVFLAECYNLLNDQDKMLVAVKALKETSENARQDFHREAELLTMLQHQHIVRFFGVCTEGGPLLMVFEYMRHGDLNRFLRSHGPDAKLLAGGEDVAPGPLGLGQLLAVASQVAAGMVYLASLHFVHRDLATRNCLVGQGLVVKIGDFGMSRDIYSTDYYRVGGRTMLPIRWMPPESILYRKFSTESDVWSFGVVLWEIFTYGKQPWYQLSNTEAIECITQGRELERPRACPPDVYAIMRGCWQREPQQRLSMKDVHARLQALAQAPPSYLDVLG
# Experimental: (§1) Neurotrophin receptors TrkA and TrkB activation (phosphorilation) was evaluated by Western-blot as follows: PC12 cell growing on 24-well plates were treated with low serum medium (0.5% FBS) to reduce the basal level of phosphorilation. After 24 h, the PC12 cells were treated with G79 (100 ng/ml), then recovered and lysated in 300 μl of ice-cold lysis buffer (Sigma Aldrich) at 5-15-30-60 min. After sonication, cell debris were removed by centrifugation (14000 rpm for 10 min) and equal amount of supernatant (30-35 μg/well) were loaded and separated by 10% polyacrilamide gel electrophoresis (PAGE) and then electrobloted onto PVDF membranes. Membranes were blocked by 5% nonfat milk and then sequentially incubated with the primary antibodies [phospho-TrkA, Tyr490 (Cell Signaling) or phospho-TrkB, Tyr515 (NovusBiological)] 1:1000 over-night and the secondary antibodies 1:2000, for 1 h at room temperature. Blots were processed for visualization by chemiluminescence system (Amersham) and exposed to Kodak film to visualize the fluorographic image.
# TrkB = biological target: T2, TrkB (Rattus norvegicus, UniProt Q63604); assay: as above; assay type: cell-based; conditions: G79 100 ng/ml; 5-15-30-60 min
# T2 construct: endogenous in cells; host or cells: PC12
# T2 sequence (Q63604 32-821): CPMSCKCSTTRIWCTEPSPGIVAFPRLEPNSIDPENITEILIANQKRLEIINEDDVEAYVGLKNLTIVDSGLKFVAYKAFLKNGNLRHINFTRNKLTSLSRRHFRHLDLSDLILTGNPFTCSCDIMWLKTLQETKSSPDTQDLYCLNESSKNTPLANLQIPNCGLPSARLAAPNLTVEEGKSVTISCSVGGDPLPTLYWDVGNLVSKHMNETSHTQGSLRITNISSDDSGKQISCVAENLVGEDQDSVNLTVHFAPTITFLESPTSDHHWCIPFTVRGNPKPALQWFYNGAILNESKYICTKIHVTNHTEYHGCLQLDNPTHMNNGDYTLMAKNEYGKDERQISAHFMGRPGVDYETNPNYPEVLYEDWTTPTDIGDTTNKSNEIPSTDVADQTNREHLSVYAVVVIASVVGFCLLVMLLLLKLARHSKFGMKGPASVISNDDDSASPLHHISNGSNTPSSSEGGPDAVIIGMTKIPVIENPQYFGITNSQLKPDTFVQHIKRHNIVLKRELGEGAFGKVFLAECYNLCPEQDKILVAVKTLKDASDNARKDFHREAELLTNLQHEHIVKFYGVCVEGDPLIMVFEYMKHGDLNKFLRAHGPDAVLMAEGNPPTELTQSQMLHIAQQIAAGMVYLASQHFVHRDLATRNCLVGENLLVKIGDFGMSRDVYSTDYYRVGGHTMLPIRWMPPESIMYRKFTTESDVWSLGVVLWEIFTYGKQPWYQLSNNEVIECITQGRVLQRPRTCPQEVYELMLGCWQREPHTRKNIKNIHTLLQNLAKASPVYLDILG
# Experimental: as §1
# p75 receptor = biological target: T3, p75 receptor (Rattus norvegicus, UniProt P07174); assay: Cytometry binding assay in PC12 with anti-TrkA antibody; conditions: cells pre-incubated with anti-TrkA antibody; growing NGF
# T3 construct: PC12 cells expressing both TrkA and p75 receptors were cultivated in normal growth medium; endogenous in cells; host or cells: PC12
# T3 sequence (P07174 30-425): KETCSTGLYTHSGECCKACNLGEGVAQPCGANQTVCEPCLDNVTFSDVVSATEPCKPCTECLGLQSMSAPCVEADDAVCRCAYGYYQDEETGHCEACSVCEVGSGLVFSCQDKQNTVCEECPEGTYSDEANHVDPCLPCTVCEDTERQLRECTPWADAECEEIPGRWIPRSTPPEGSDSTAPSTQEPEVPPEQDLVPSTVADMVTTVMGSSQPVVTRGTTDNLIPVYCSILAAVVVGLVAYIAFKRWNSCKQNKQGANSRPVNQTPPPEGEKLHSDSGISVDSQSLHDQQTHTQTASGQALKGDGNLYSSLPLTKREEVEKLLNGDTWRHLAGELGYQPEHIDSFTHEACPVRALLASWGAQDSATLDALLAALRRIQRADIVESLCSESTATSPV
# Experimental: In order to assess the binding of G79 to the TrkA (PC12 cells) and TrkB receptors (SH-SY5Y), we performed competitive binding assays by flow cytometry. In order to assess the binding competition between p75 and TrkA, PC12 cells expressing both TrkA and p75 receptors were cultivated in normal growth medium. After detaching cells by trypsin solution, 200,000 cells/well were added to tubes for the following incubations. One tube contains control untreated cells. In the other tubes, cells were pre-incubated for 45 minutes with different concentrations of NGF (0-10-20-50-100 ng/ml), that can directly bind both TrkA and p75 receptors, blocking the possible binding of G79 if it competes for the same receptors. Then, without washing the cells, G79 conjugated with FITC fluorescence (100 ng/ml) was added and so incubated the cells for 1 hour. Samples were read in a cytometer (FCAScan).
# To detect the binding separately on both receptors, a prior incubation of cells (before NGF incubation) with blocking antibodies was made. The cells were preincubated for 1 hour with blocking antibody anti-p75 (1:100; Chemicon Int.), to detect the binding on TrkA, or blocking antibody anti-TrkA (1:200; AbCam) to detect the binding on p75. […] All the results are expressed as mean channel fluorescence (MCF), which is a measure of the cell surface fluorescence produced by G79-FITC binding.
# [3] = plus LY294002 (10 μM), inhibitor of PI3K
# [4] = plus PD98059 (50 μM), inhibitor of MAPK kinase
Compound,number of differentiated cells in a field of 100 cells (PC12 cells [1]; 20 μg/ml) [cells],number of differentiated cells above the best working concentration (PC12 cells [1]),differentiation of PC12 cells (in words) (PC12 cells [1]),best working concentration for PC12 differentiation (PC12 cells [1]) [ng/mL],number of differentiated cells (PC12 cells [2]; [3]),number of differentiated cells (PC12 cells [2]; [4]),number of differentiated cells (PC12 cells [2]; treatment alone),"TrkA phosphorilation (phospho-TrkA, Tyr490) (TrkA)","TrkB phosphorilation (phospho-TrkB, Tyr515) (TrkB)",binding on p75 (MCF of G79-FITC) (p75 receptor),number of differentiated cells in a field of 100 cells (PC12 cells [1]; 100 ng/ml) [cells]
"CC(C)CN(CC(=O)N(CCCN1CCCC1=O)CC(N)=O)C(=O)CNCCc1ccccc1F [Compound G79, [N-(2-(2′-Fluorophenyl)ethyl)glycyl]-[N-(2-methylpropyl)glycyl]-N-[3-(2′-oxopyrrolidinyl)propyl]glycinamide]",11.3±2.68,decreases,induce the differentiation of PC12 cells,20000,5.28±2.54,3.1±1.06,11.5±2.8,phosphorilated already after 5 min,phosphorilated already after 5 min,could bind on p75 receptor,
"CC(C)CN(CC(=O)N(CCc1ccc(S(N)(=O)=O)cc1)CC(N)=O)C(=O)CNCCc1ccccc1F [Compound G80, [N-(2-(2′-Fluorophenyl)ethyl)glycyl]-[N-(2-methylpropyl)glycyl]-N-[2-(4′-sulfamoylphenyl)ethyl]glycinamide]",,,induce the differentiation of PC12 cells; also recorded: good differentiation with very long neurites,20,8.5±2.6,4±2.3,15.1±6.3,,,,
"CC(C)CN(CC(=O)N(CCc1ccc(S(N)(=O)=O)cc1)CC(N)=O)C(=O)CNCCN1CCCC1 [Compound G81, [N-(2-(1-Pyrrolidinyl)ethyl)glycyl]-[N-(2-methylpropyl)glycyl]-N-[2-(4′-sulfamoylphenyl)ethyl]glycinamide]",,decreases,induce the differentiation of PC12 cells; also recorded: significant differentiation,100,6.6±4.02,1.6±1.1,14.1±3.3,,,,9.2±3.9
